Measured values from patent US11439980B2, “Contaminant-activated photocatalysis” (UNIVERSITY OF FLORIDA RESEARCH FOUNDATION, INC., priority 2016, dated 2022).

How the values were obtained:
[1] = Photocatalytic degradation of Mordant Orange on coated tiles under visible light; details: MO on anatase coating, N=4
Procedure: (§1) Photocatalytic coating formulation was prepared by adding 10 mg of anatase (A7) to 10 mL of dilute NaOH (pH=9.5) in a 20 mL scintillation vial wrapped with aluminum foil. The suspension was sonicated (Misonix Sonicator 3000, Farmingdale, NY) at the highest power level providing 180-200 W for 30 minutes total (10 min on/2 min off×3). Similarly, rutile (R22) and silica (S15) coating formulations were prepared without exposing to visible light. In case of anatase+PHF, the anatase suspension was sonicated for 30 minutes followed by addition of 1 mL of a PHF solution (1000 or 100 mg/L). The nanocomposites suspension was mixed with a magnetic stirrer for 10 minutes in dark.
(§2) Ceramic tiles were utilized to evaluate the photocatalytic degradation of organic dye and inactivation of microbes. […]
(§3) The photocatalytic experiments were carried out under fluorescent lamps (General Electric model T8 Ultramax F28T8-SPX41) at visible light irradiance of 1.8-2.0 W/m^2. […] The visible light and UVA irradiances were measured with a PMA 2140 Global detector or a PMA 2110 UVA detector attached to a PMA2110 meter (Solar Light Co., Glenside, Pa.).
(§4) The temporal changes in dye concentration were determined by measuring the absorbance after predetermined times of exposure to visible light. The inactivation of S. aureus was evaluated by determining the viable counts after exposure to visible light. […]

[2] = Photocatalytic degradation of Procion Red on coated tiles under visible light; details: PR on anatase coating, N=4
Procedure: as §1, §2, §3, §4

Substance | overall pseudo first order degradation rate [1] [h⁻¹] | overall pseudo first order degradation rate [2] [h⁻¹]
Mordant Orange | 0.01 | 
Procion Red |  | 0.023
